Test results: patent publication US20060183119A1, “Method for determining predisposition to a physiological reaction in a patient” (UNIVERSITE LAVAL, priority 2002, published 2006)
Changes are numbered by the printed parent chain. Where two headings read alike, the source gives them in different places.

Key:
human UGT1A9*2 = target: T1, human UGT1A9*2 (Homo sapiens, UniProt O60656, C3Y); assay: Glucuronidation by microsomes of HEK-293 cells stably expressing UGT1A9*2; settings: for Vmax / Km: SN-38 glucuronidation
T1 sequence (O60656 26-530): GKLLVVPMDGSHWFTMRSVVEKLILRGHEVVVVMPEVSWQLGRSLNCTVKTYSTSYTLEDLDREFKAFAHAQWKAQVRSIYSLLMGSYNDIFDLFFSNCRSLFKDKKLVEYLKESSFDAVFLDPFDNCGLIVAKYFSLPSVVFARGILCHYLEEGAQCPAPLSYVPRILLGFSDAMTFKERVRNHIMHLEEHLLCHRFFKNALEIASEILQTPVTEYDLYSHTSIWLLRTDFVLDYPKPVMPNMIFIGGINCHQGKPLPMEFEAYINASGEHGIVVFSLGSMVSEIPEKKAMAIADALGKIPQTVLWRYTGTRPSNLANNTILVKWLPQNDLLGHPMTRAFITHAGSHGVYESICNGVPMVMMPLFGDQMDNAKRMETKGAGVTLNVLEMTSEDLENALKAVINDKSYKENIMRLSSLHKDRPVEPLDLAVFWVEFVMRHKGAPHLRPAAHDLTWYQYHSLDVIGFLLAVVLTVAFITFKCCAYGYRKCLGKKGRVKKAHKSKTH
Experimental: (§1) Microsomal fractions from HEK-293 cells stably expressing human UGT1A9*1, UGT1A9*2 and UGT1A9*3 were used in enzymatic assays. Reactions (100 μl volume) contained 50 mM Tris-HCl, pH 7.3, 10 mM MgCl2, 100 μg/mL phosphatidylcholine, 1 mM UDP-glucuronic acid, 40 to 60 μg of membrane protein. […] Human liver microsome were incubated in the same condition for control. Reaction was stopped by the addition of 200 μL MeOH+1% HCl 2N, followed by centrifugation at 14000 rpm for 10 minutes. Supernatant was filtered through a 0.22 μm filter and 100 μL of water was added. For SN-38 and SN-38-glucuronide detection, 10 μL samples were injected on a liquid chromatographic system coupled to a fluorescence detector. Time-course experiments were realized to determine the linearity of the glucuronidation reaction.
(§2) A liquid chromatographic method was developed to quantify SN-38 glucuronidation of UGT cell line-derived microsomes and human liver microsomes. Samples were analyzed using high performance liquid chromatography (Alliance 2695, Waters, Milford, Mass.). […] At a constant flow rate (0.7 ml/min), a linear gradient from 20 to 65% B was run over 3 min, held 0.8 min and a second gradient until 95% of B was run over 2 min and then re-equilibrated to 20% B over 2 min. The effluent from the HPLC system (Alliance 2695) was connected directly to a fluorescence detector (Waters, Milford, Mass.) using an excitation wavelength of […] and an emission of 460 nm. […] Determination of the glucuronidation rates obtained with other substrates was performed as currently known in the art.
(§3) Microsomal fractions from HEK293 (40 to 60 μg) were added to a reaction mixture (100 μL) containing 50 mM Tris-HCl, pH 7.3, 10 mM MgCl2, 100 μg/mL phosphatidylcholine and 2 mM UDP-glucuronic acid. […] Commercially available human liver microsomes (Human Cell Culture Center Inc., Laurel, Md.) were incubated in the same conditions for all experiments. Time-course experiments were performed to determine the linearity of the glucuronidation reaction. For the determination of Vmax and Km. HEK293 cells stably expressing UGT1A9 enzymes were incubated in the presence of various concentrations of SN-38 ranging from 0.1 to 200 μM and incubated for 30 min as described above whereas UGT1A7 membranes preparations were incubated for 3 hours. […] Reactions with SN-38 were stopped by the addition of 200 μL MeOH+1% HCl 2N, followed by centrifugation at 14000×g for 10 minutes. The supernatants were filtered through a 0.22 μm membrane and 100 μL of water was added to the filtrate. For the detection of SN-38 and its glucuronide (SN-38G), 10 μL samples were injected in a liquid chromatographic system (HPLC) coupled to fluorescence detector as described below.
(§4) A HPLC method was developed to quantify the rates of SN-38 glucuronidation from the various microsomal fractions under study. The HPLC system used was an Alliance 2695 (Waters, Milford, Mass.) equipped with a 50×3.2 mm Colombus C18 column (Phenomenex, Torrance, Calif.). […] Then a second gradient ranging from 65% to 95% solvent B was generated during the following 2 min. Finally, the column was re-equilibrated to 20% solvent B for 2 min. The column was connected to a fluorescence detector model 474 (Waters, Milford, Mass.) and the molecules were excited at a wavelength of 370 nm and an emission of 425 nm.

human UGT1A9*3 = target: T2, human UGT1A9*3 (Homo sapiens, UniProt O60656, M33T); assay: Glucuronidation by microsomes of HEK-293 cells stably expressing UGT1A9*3
T2 sequence (O60656 26-530 M33T): T1 sequence (O60656 26-530) with M8T
Experimental: as §1, §2, §3, §4

[1] = threonine at position 33, versus UGT1A9*1

CCc1c2c(nc3ccc(O)cc13)-c1cc3c(c(=O)n1C2)COC(=O)[C@]3(O)CC [SN-38, 7-ethyl-10-hydroxycamptothecin]
effect on conjugation rate of SN-38 (in words) (human UGT1A9*2; 5 μM of SN-38, versus wild type): no significant effect
Vmax (human UGT1A9*2; 0.1 to 200 μM, mean±SD): 324.38 ± 95.09 pmol/min/mg protein
Km (human UGT1A9*2; Table 5): 5.15 ± 1.81 µM
Vmax (human UGT1A9*2; Table 5): 324.68 ± 95.09
Km (human UGT1A9*2; read-out: Apparent Km, 0.1 to 200 μM, mean±SD, Lineweaver-Burk): 5.15 ± 1.81 µM
increased activity (SN-38 conjugation) (human UGT1A9*2; tyrosine at codon 3, versus UGT1A9*1): 16.7%
residual activity compared to the wild type enzyme (SN-38G formation) (human UGT1A9*3; 5 μM of SN-38): 3.8%
Vmax values lower for UGT1A9*3 compared with UGT1A9*1 (human UGT1A9*3; SN-38 glucuronidation): about 26 times
Vmax (human UGT1A9*3; SN-38 glucuronidation, 0.1 to 200 μM, mean±SD): 11.89±2.61 pmol/min/mg protein
Km (human UGT1A9*3; SN-38 glucuronidation, Table 5): 3.21 ± 0.95 µM
Vmax (human UGT1A9*3; SN-38 glucuronidation, Table 5): 15.50 ± 8.40
SN-38 glucuronidating activity of the allele (in words) (human UGT1A9*3; in vitro functional genomic assays): low
Km (human UGT1A9*3; read-out: Apparent Km, SN-38 glucuronidation, 0.1 to 200 μM, mean±SD, Lineweaver-Burk): 3.21 ± 0.95 µM
decrease of glucuronidation rate (human UGT1A9*3; [1]): approximately 20 folds
decreased conjugation rate for SN-38 (human UGT1A9*3; [1]): 96.3%
effect of codon 33 variation on affinity of the protein for the substrate (in words) (human UGT1A9*3; versus UGT1A9*1): does not affect significantly
